This experiment relates to cartilage precursor cells from the developing limb bud of normal chick embryos. In words: Cartilage development in micromass cultures of cartilage precursor cells. It is filed as cell-based.
The mark [1] stands for this setting: varying doses of the salt added to basic culture medium (about 0.6 μg/ml ferrous sulphate, about 75 μg/ml ascorbic acid) vs control group without addition, FIG. 2, FIG. 4.

“Also recorded” adds a separate entry of the source. Read-outs that look alike come from different tables or passages of the source.

From patent US20010044425A1, “Compositions useful in the treatment of diseases of connective tissues” (priority 2000, published 2001) come the findings set out here.

Consider `O=S(=O)([O-])[O-].[K+].[K+]` [potassium sulphate], for which the “cartilage development (amount of cartilage produced)” value (“cartilage development” for short) was “No statistically significant increase in cartilage development”. In the case of `O=S(=O)([O-])[O-].O=S(=O)([O-])[O-].O=S(=O)([O-])[O-].[Fe+3].[Fe+3]` [ferric sulphate], the “cartilage development” value was “no statistically significant difference”.

For ferrous ascorbate, the “cartilage development” value under setting [1] was “significantly enhanced cartilage production”. For the compound `O=C1O[C@H]([C@@H](O)CO)C(O)=C1O` [ascorbic acid], the “cartilage development” value (ascorbic acid 75 or 150 μg/ml added vs control with no ascorbic acid added, FIG. 1) is on record as “significantly enhances cartilage development in a dose-dependent manner”.

For the compound `O=C([O-])/C=C/C(=O)[O-].[Fe+2]` [ferrous fumarate], the “cartilage development” value under setting [1] was “significantly enhanced cartilage production”. For the compound `O=S(=O)([O-])[O-].[Fe+2]` [ferrous sulphate], the “cartilage development” value was “significantly enhanced cartilage development in a dose-dependent manner” and the “cartilage production when combined with ascorbic acid” value was “significantly enhanced the cartilage production”.

Turning to `O=S(=O)([O-])[O-].[Zn+2]` [zinc sulphate], the “cartilage development” value is “no statistically significant increase in cartilage development”. Same read-out and setting: under `O=S(=O)([O-])[O-].[Co+2]` [cobalt (II) sulphate] stands “No statistically significant increase in cartilage development; also recorded: significantly reduce the amount of cartilage produced in a dose-dependent manner”.
